According to EP2345639A1, “Cyclic hydroxylamine derivatives, their preparation and use as antioxidants” (ABIOGEN PHARMA S.p.A., priority 2009, dated 2011):

What was measured:
[1] = Brain-to-plasma concentration ratio in mice; type: in vivo, Female CD-1 mice; settings: female, CD-1, mouse, ip, 25 mg/kg intraperitoneal, area under the curve of brain and plasma concentrations 0 to 60 minutes, read-out: B/P ratio
Description: The ability of the compounds of the invention to penetrate the brain was investigated by measuring their brain/plasma (B/P) ratio in mice following intraperitoneal administration.
Female CD-1 mice were used (n=3 for each time period) and received the compounds of the invention by intraperitoneal administration, in 25 mg/kg doses in a 0.5% NaHCO3 buffer (pH 8.3). At predefined intervals following said administration, i.e. 5, 15, 30 and 60 minutes, the mice were killed and both plasma and total brain tissue were collected.
Specifically, after anaesthesia with ether, the animals were bled by blood withdrawal from the abdominal aorta then immediately decapitated. The blood samples were collected into plasma separator tubes containing Li-Heparin as anticoagulant and centrifuged. The resulting plasma was then stored at -20 °C. The brain was rapidly removed from the cranium and weighed, subsequently frozen and stored at -20 °C before treatment by homogenization and HPLC analysis.
The plasma was thawed and mixed with an equal volume of the extraction solution.
1 ml of solution was then extracted by adding 20 µl of 70% HClO4, then centrifuged at 15,500g for 5 minutes and injected into the HPLC.
Each brain was thawed and homogenized with the extraction solution to provide a final composition of 4 ml/1g of tissue by means of an Ultra-Turrax blender and sonicated for 5 minutes. After centrifugation of the homogenate at 15,500g for 5 minutes, the resulting solution was treated with HClO4, as indicated for the plasma. Specific chromatographic conditions had been developed for each analyte, the calibration curve being constructed for plasma and brain homogenate.

[2] = Acid dissociation constants (pKa) by titration; type: physicochemical; settings: pH at semi-neutralization point of titration with 0.1 N NaOH or HCl
Description: The following equipment was used during the implementation of all the examples: • for melting point determination a Buchi B-540 instrument was used; • the pKa is the pH at the semi-neutralization point of titration using a Mettler Toledo DL-50 instrument with a 0.1 N NaOH or HC! solution; • the ^1H-NMR spectra were recorded at 300 MHz and the ^13C-NMR spectra were recorded at 75 MHz using a Varian Unity 300 instrument; • spectrophotometric measurements were carried out using a Lambda Perkin Elmer 15 UV/Vis spectrophotometer for the DPPH assay and a Wallac Victor 1420 multilabel counter spectrophotometer.

[3] = TEAC method (Trolox Equivalent Antioxidant Capacity Assay); type: biochemical; settings: ratio of gradient to gradient of Trolox; 650 nm, 37 °C, about 90 minutes
Excerpt: This assay is used to measure the total antioxidant activity of pure substances, biological fluids and plant compounds and is based on the reaction of antioxidants with the cation radical ABTS·^+ (2,2'-azinobis(3-ethylbenzothiazolin-6-sulphonate)). This cation radical is metastable and has to be generated just before the experiment by reacting ABTS with hydrogen peroxide in the presence of HRP. This radical can be reduced, with consequent loss of absorbance, by an antioxidant whose scavenging capacity can be measured spectrophotometrically at 650 nm. The test is carried out at 37 °C and the results are obtained from a comparison with Trolox (a synthetic antioxidant and hydrophilic analogue of vitamin E).
The ABTS solution S1 was prepared as follows: • 20 mg of ABTS were added to 50 mM of citric acid buffer (40 ml) at pH=4.5 and to the resulting solution there was added an aqueous solution of HRP (4.4 mg, 400 µl) and an aqueous solution of H2O2 (10 µl of a 30% solution diluted with 16.3 ml of water).
For each of the compounds (1)-(11), as synthesized above, there was prepared a 600 µM solution in water, methanol or DMSO according to its solubility, as well as a Trolox solution as reference.
Each solution was diluted to produce 6 solutions each at a concentration between 25 µM and 300 µM. From each of the diluted and divided solutions, there were withdrawn 20 µl to which 200 µl of solution S1 were then added.
The decrease in absorbance of each solution thus obtained was monitored at 650 nm until a stable value was reached (about 90 minutes).
For each set of 6 solutions and for the reference trolox solution, the absorption was given in graph form as a function of the amount of compound (nmol) in the solution. The gradient of the straight line obtained by linear interpolation was determined according to the least squares method. The TEAC value of each compound of the invention is given in the table below and is expressed as the ratio between the gradient of the resulting straight line and the gradient of the reference (trolox) straight line.

[4] = system: healthy animals; assay: Effect of the compounds on healthy animals (same in vivo assay, cerebral oxidative parameters); design: species or system mice; settings: healthy mice; for Average % variation with respect to the vehicle: 50 mg/kg IP for three consecutive days, mean over all parameters, D = doxorubicin alone; for CAT/pr / GPX/pr / GSH/pr / GST/pr / Prot. Hmg / Prot. Ox/pr / SOD/pr / Brain/BWi: 50 mg/kg IP x3 days, percentage change relative to the vehicle
Description: (§1) 10 mice were used for each treatment group. For each compound 50 mg/kg were administered intraperitoneally (IP) for three consecutive days (day 0, 1 and 2); half the animals (5) also received IP 16.7 mg/kg of doxorubicin immediately after the first treatment (day 0). On the day after the last administration (day 3) the animals were killed by neck dislocation and the brains were removed, weighed and frozen in liquid nitrogen.
(§2) For the analyses of oxidative stress, 100 mg/ml of brain homogenate was prepared in HEB^(*) buffer (pH 7.4 EDTA/HEPES^(**)) containing a mixture of enzyme inhibitors (Leupeptin, Pepstatin, Aprotinin, BHA).
(§3) The evaluation parameters were: • BrW/BWi: ratio between final brain weight and initial body weight (day 0); • Prot. Hmg: total proteins in the homogenate (BCA method, i.e. bicinchoninic acid); • Prot. Ox: oxidized proteins in the Hmg by means of a colorimetric method using dinitrophenylhydrazone (DNPH); • GSH: reduced glutathione in the supernatant (sn) of the Hmg, obtained after precipitation with metaphosphoric acid (MPA), by means of a colorimetric method using dithiodinitrobenzene (DTNB); • CAT: catalase in the Hmg by a colorimetric method using potassium dichromate; • SOD: superoxide dismutase by a colorimetric method using SOD Reagent (xanthine, EDTA, nitroblue tetrazole, Na2CO3, BSA, i.e. bovine serum albumin); • GST: glutathione S-transferase in the supernatant by a colorimetric method using chlorodinitrobenzene (CDNB) and GSH; and • GPx: glutathione peroxidase in the supernatant after addition of GSH and t-BuOOH, heating and precipitation with MPA; followed by GSH method with DTNB. The assay was performed on the compounds (1)-(5) and (7)-(11) and on edaravone (E), as comparative compound.
The mean % effect, on all the parameters simultaneously, of the triple treatment in healthy animal, as mean percentage change relative to the vehicle. This value is useful as an approximate safety index of the oxidative state of the brain, i.e. the capacity of the compounds of the invention not to alter cerebral homeostasis in healthy animals.

[5] = system: C6 cells (rat glioma) and BAEC cells (bovine aortic endothelial); assay: In vitro inhibition of CHP-induced oxidative stress (DCF fluorescence); type: cell-based; settings: 500 µM CHP, 4, 20, 100 and 500 µM compound, 30 minutes; depending on the concentrations and cell line
Description: The method used was essentially the one reported by Rüweler M. et al. ("Inhibition of peroxide-induced radical generation by plant polyphenols in C6 astroglioma cells" (2008) Toxicol in vitro 22, 1377-81), with a few minor modifications.
The cells were seeded in phenol-red free DMEM (Sigma Aldrich) into 96-well plates with 5% FBS and 20 mM HEPES at a density of 40,000 cells/well. After 48 hours, the medium was substituted by HBSS (Hanks' Balanced Salt Solution, Sigma) containing 10 µM of dihydro-2',7'-dichlorofluorescein diacetate (H2DCF-DA, Sigma Aldrich) and incubated in darkness for 30 minutes at 37 °C, in order to load the cells with fluorescent dye. H2DCF-DA was hydrolyzed enzymatically by the intracellular esterases to form non-fluorescent H2DCF, which was then rapidly oxidized to form 2',7'-dichlorofluorescein (DCF) being highly fluorescent in the presence of reactive species (RS). The intensity of DCF fluorescence is directly proportional to the amount of RS formed.
After carrying out two washes, the cells were exposed to 500 µM of CHP and various concentrations (4, 20, 100 and 500 µM) of the compounds of the invention for 30 minutes at 37 °C. Fluorescence was then measured, after cell washing, by a microplate reader at an excitation wavelength of 485 nm and an emission wavelength of 535 nm.
Six wells per plate per concentration of test composition (compound + CHP) and per control (HBSS without CHP) were measured and 12 wells were used as reference for CHP-induced stress. In addition, each 96-well plate contained 6 wells that received the highest concentration of the tested compounds without CHP, to investigate whether the compounds of the invention alone were able to induce cellular radical formation.
When using this assay, it should be borne in mind that DCF fluorescence is a generalized indicator of oxidative stress rather than of any particular reactive species, i.e. it is not a direct assay for H2O2 or other reactive species (Halliwell B, Whiteman M. (2004) "Measuring reactive species and oxidative damage in vivo and in cell culture: how should you do it and what do the results mean?" Br. J. Pharmacol. 142 231-255). Therefore, when an increase in DCF fluorescence induced by exposure of cells to CHP was measured, as was carried out in these assays, it was not possible to deduce which reactive species was responsible. Inhibition of CHP-induced fluorescence was evaluated by means of different concentrations of the compounds of the invention and comparative compounds such as Trolox and edaravone.

[6] = system: doxorubicin-induced cerebral oxidative stress in mice; assay: In vivo assay of cerebral oxidative stress induced in mice by doxorubicin (model and oxidized animals); settings: % incidence of D relative to V
Description: The assay was carried out on compounds (1)-(5) and (7)-(11) and on edaravone (E) as comparative compound.
as §1, §2, §3
The mean effect (n=5 experiments) of doxorubicin (D), i.e. "oxidized" animal, relative to the vehicle (V), the vehicle representing the healthy animal.
All the parameters, with the exclusion of Brain/BWi and Prot. Hmg, were normalized for total Hmg proteins. The D value standard deviations and the % incidence relative to V are given in italics.
The effect of the tested compounds on the "oxidized" animals was given as % inhibition relative to the percentage change due to doxorubicin alone. The effect of the compounds on the oxidized animals can be expressed both as a function of the values of the vehicle (healthy, vehicle only) and as a function of the value of its own (healthy, compound only): • Vehicle: percentage [(Compound+D)/V]x100/[(V+D)/V]x100 • Its own: percentage [(Compound+D)/Compound]x100/[(V+D)/V]x100
Again in this case, the mean % effect relative to doxorubicin alone could be given for all the parameters simultaneously, as an approximate index of effectiveness on the cerebral oxidative state of the animal.

CC1(C)CC(=O)C(C2CC(C)(C)CCN2O)C(=O)C1 (centres unmarked) [(1), 2-(1-hydroxy-4,4-dimethylpiperidin-2-yl)-5,5-dimethylcyclohexane-1,3-dione]
Kp [1]: > 0.1
pKa1 [2]: 3.35
pKa2 [2]: 6.83
TEAC [3]: 1.0
Average % variation with respect to the vehicle [4]: -7.0%
Inhibition of CHP-induced fluorescence [5]: effective

O=C1O[C@H]([C@@H](O)CO)C(O)=C1O [vitamin C, reference compound]
TEAC [3]: 0.9

Cc1c(C)c2c(c(C)c1O)CCC(C)(C(=O)O)O2 (centres unmarked) [Trolox, reference compound]
Inhibition of CHP-induced fluorescence [5]: 10-50%

COc1cccc2c1C(=O)c1c(O)c3c(c(O)c1C2=O)C[C@@](O)(C(=O)CO)C[C@@H]3O[C@H]1C[C@H](N)[C@H](O)[C@H](C)O1 [doxorubicin, reference compound]
%D Brain/BWi [6]: 93.1%
%D CAT [6]: 86.8%
%D GPX [6]: 90.1%
%D GSH [6]: 87.5%
%D GST [6]: 90.9%
%D Prot. Hmg [6]: 108.3%
%D Prot. Ox [6]: 117.2%
%D SOD [6]: 85.7%
Average % variation with respect to the vehicle [4]: -11.4%
CAT/pr [4]: -13.2%
GPX/pr [4]: -9.9%
GSH/pr [4]: -12.5%
GST/pr [4]: -9.1%
Prot. Hmg [4]: 8.3%
Prot. Ox/pr [4]: 17.2%
SOD/pr [4]: -14.3%
Brain/BWi ([4]; 50 mg/kg): 6.9%
Brain/BWi ([4]; listed as D, 50 mg/kg): -6.9%

Cc1cc(O)c(C2COCCN2O)c(=O)o1 (centres unmarked) [(9), 4-hydroxy-3-(4-hydroxymorpholin-3-yl)-6-methyl-2H-pyran-2-one]
pKa1 [2]: 2.85
pKa2 [2]: 5.71
TEAC [3]: 1.2
Average % variation with respect to the vehicle [4]: -9.9%

O=C1CCCC(=O)C1C1COCCN1O (centres unmarked) [(6), 2-(4-hydroxymorpholin-3-yl)-cyclohexane-1,3-dione]
pKa1 [2]: 3.00
pKa2 [2]: 6.39
TEAC [3]: 1.1

CC1(C)CCN(O)C(C2C(=O)CC(c3ccccc3)CC2=O)C1 (centres unmarked) [(2), 2-(1-hydroxy-4,4-dimethylpiperidin-2-yl)-5-phenylcyclohexane-1,3-dione]
Kp [1]: > 0.1
pKa1 [2]: 3.21
pKa2 [2]: 6.85
TEAC [3]: 0.6
Average % variation with respect to the vehicle ([4]; 50 mg/kg): did not significantly alter the parameters
Average % variation with respect to the vehicle ([4]; listed as V+(2), 50 mg/kg): 3.6%
Brain/BWi [4]: 7.6%
CAT/pr [4]: -2.9%
GPX/pr [4]: 6.6%
GSH/pr [4]: 6.1%
GST/pr [4]: 5.8%
Prot. Hmg [4]: -2.2%
Prot. Ox/pr [4]: -3.7%
SOD/pr [4]: -0.2%
